Measurements taken from ChEMBL document CHEMBL1139432, “Aryl sulfones as novel bradykinin B1 receptor antagonists for treatment of chronic pain” (Bioorg Med Chem Lett, 2008).

Assays:
B1 bradykinin receptor [1] = target: T1, B1 bradykinin receptor (Homo sapiens, UniProt P46663); assay: Displacement of [3H]DAK from human bradykinin B1 receptor expressed in clone CHO-D-/aequorin cells; type: cell-based
T1 sequence (P46663 whole entry): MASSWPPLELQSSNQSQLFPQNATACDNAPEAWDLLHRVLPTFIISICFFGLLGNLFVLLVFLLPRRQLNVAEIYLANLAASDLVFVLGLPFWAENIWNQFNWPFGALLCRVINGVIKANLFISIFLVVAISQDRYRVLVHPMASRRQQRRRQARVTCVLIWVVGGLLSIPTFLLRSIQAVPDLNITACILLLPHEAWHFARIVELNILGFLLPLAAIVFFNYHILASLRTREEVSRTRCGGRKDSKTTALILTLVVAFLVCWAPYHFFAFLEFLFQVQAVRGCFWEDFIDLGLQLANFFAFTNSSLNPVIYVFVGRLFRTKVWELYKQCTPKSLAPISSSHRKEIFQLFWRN

B1 bradykinin receptor [2] = target: T1, B1 bradykinin receptor; assay: Antagonist activity at human bradykinin B1 receptor expressed in clone CHO-D-/aequorin cells by aquerin based assay; type: functional, cell-based
[3] = Metabolic stability in human liver microsomes; type: ADME, Microsome; details: read-out: Stability
[4] = Metabolic stability in rat liver microsomes; type: ADME, Microsome; details: read-out: Stability
B1 bradykinin receptor [5] = target: T2, B1 bradykinin receptor (Oryctolagus cuniculus, UniProt P48748); assay: Antagonist activity at rabbit bradykinin B1 receptor expressed in clone CHO-D-/aequorin cells by aquerin based assay; type: functional, cell-based
T2 sequence (P48748 whole entry): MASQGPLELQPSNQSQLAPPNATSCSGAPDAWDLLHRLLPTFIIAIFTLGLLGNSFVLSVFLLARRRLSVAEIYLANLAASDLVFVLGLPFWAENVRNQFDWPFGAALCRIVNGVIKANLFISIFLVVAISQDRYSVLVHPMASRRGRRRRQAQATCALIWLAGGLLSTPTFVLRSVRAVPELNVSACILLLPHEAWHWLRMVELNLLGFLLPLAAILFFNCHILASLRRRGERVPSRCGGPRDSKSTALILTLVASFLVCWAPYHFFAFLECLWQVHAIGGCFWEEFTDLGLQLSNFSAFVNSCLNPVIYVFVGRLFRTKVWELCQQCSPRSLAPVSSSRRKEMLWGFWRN

Oryctolagus cuniculus = assay: Inhibition of des-Arg-Kallidin-induced hypotensive response in sc dosed rabbit; type: functional, organism-based; set-up: scale not given: the % may be the effect or the level left

Structure (SMILES)	Ki (B1 bradykinin receptor [1]) [nM]	IC50 (B1 bradykinin receptor [2]) [nM]	microsomal CLint [3] [µL/min/mg]	microsomal CLint [4] [µL/min/mg]	IC50 (B1 bradykinin receptor [5]) [nM]	Activity (Oryctolagus cuniculus) [%]
CC(C)(C)c1ccc(S(=O)(=O)C[C@@H](O)[C@@H](O)C(=O)N[C@@H]2CCCc3cc(CN4CCCCC4)ccc32)cc1	15.8	4.5	296	50	25.3	–
Cc1ccc(S(=O)(=O)C[C@@H](O)[C@@H](O)C(=O)N[C@@H]2CCCc3cc(CN4CCCCC4)ccc32)cc1	–	–	50	50	–	–
O=C(N[C@@H]1CCCc2cc(CN3CCCCC3)ccc21)[C@H](O)[C@H](O)CS(=O)(=O)c1ccccc1	–	–	319	50	–	–
O=C(C[C@@H](NS(=O)(=O)c1ccc2ccccc2c1)c1ccccc1)N[C@@H]1CCCc2cc(CN3CCCCC3)ccc21	–	–	919	572	–	–
O=C(N[C@@H]1CCCc2cc(CN3CCCCC3)ccc21)[C@H](O)[C@H](O)CS(=O)(=O)c1ccc(Cl)c(Cl)c1	16.9	17.1	100	193	20.3	–
O=C(CC(CS(=O)(=O)c1ccc2ccccc2c1)c1ccccc1)N[C@@H]1CCCc2cc(CN3CCCCC3)ccc21 (stereo not given in full)	1.5	13.7	744	167	–	–
O=C(C[C@@H](NS(=O)(=O)c1cccc(C(F)(F)F)c1)c1ccc(F)cc1)N[C@@H]1CCOc2cc(CN3CCCCC3)ccc21	–	–	–	–	–	47
O=C(C[C@@H](O)CS(=O)(=O)c1ccc2ccccc2c1)N[C@@H]1CCCc2cc(CN3CCCCC3)ccc21	100	107	–	–	–	–
O=C(C[C@H](O)CS(=O)(=O)c1ccc2ccccc2c1)N[C@@H]1CCCc2cc(CN3CCCCC3)ccc21	41.4	48.9	112	100	–	–
O=C(N[C@@H]1CCCc2cc(CN3CCCCC3)ccc21)[C@H](O)[C@H](O)CS(=O)(=O)c1cccc(Cl)c1Cl	–	–	214	50	–	–
O=C(N[C@@H]1CCCc2cc(CN3CCCCC3)ccc21)[C@H](O)[C@H](O)CS(=O)(=O)c1ccc(C(F)(F)F)cc1	48.4	44.9	50	50	210	–
O=C(N[C@@H]1CCCc2cc(CN3CCCCC3)ccc21)[C@H](O)[C@H](O)CS(=O)(=O)c1cccc(Cl)c1	–	–	180	139	–	–

Now from value to molecule, other results behind:

Ki (B1 bradykinin receptor [1]) [nM]	IC50 (B1 bradykinin receptor [2]) [nM]	microsomal CLint [3] [µL/min/mg]	microsomal CLint [4] [µL/min/mg]	IC50 (B1 bradykinin receptor [5]) [nM]	Structure (SMILES)	Activity (Oryctolagus cuniculus) [%]
23.5	50.6	100	50	–	O=C(N[C@@H]1CCCc2cc(CN3CCCCC3)ccc21)[C@H](O)CCS(=O)(=O)c1ccc2ccccc2c1	–
–	–	274	316	–	CO[C@@H](CC(=O)N[C@@H]1CCCc2cc(CN3CCCCC3)ccc21)CS(=O)(=O)c1ccc2ccccc2c1	–
–	–	50	100	–	O=C(CCCS(=O)(=O)c1ccc2ccccc2c1)N[C@@H]1CCCc2cc(CN3CCCCC3)ccc21	–
–	–	216	237	–	CO[C@H](CCS(=O)(=O)c1ccc2ccccc2c1)C(=O)N[C@@H]1CCCc2cc(CN3CCCCC3)ccc21	–
19.1	30.8	100	143	–	O=C(N[C@@H]1CCCc2cc(CN3CCCCC3)ccc21)[C@@H](O)CCS(=O)(=O)c1ccc2ccccc2c1	–
